The record followed here is BindingDB's records for doi:10.7270/Q2X928QK (University of Pittsburgh, 2007).

The test deals with T1, M-phase inducer phosphatase 2 (Homo sapiens, UniProt P30305).
T1 sequence (P30305 whole entry): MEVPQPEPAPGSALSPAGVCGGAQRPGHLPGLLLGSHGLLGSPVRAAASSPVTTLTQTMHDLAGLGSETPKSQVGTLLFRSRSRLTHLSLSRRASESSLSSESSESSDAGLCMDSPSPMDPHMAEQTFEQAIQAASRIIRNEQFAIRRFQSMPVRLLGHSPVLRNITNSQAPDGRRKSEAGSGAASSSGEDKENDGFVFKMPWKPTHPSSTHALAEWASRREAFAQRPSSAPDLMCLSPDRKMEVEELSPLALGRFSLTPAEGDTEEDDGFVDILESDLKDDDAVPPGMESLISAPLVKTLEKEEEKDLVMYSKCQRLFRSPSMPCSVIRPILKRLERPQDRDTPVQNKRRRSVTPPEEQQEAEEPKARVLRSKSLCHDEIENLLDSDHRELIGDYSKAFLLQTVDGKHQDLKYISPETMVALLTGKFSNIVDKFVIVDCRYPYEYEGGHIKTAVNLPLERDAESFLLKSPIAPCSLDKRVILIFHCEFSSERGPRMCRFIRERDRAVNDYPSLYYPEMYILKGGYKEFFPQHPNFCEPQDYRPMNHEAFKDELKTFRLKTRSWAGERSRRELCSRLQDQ
In words: Cdc25B catalytic domain inhibition plus catalase – biochemical, catalase present, probe assessment, dose response (AID 668).

As usually defined, the IC50 is the point on the concentration scale where inhibition reaches its midpoint. With `CC(=O)Nc1cc(OC(C)=O)c2nonc2c1OC(C)=O` [Acetic acid 7-acetoxy-5-acetylamino-benzo[1,2,5]oxadiazol-4-yl ester], the IC50 was greater than 50 µM.
For the compound `N#Cc1c(N)sc(=S)c2c1CCN(Cc1ccccc1)C2` [3-Amino-7-benzyl-1-thioxo-5,6,7,8-tetrahydro-1H-thiopyrano[3,4-c]pyridine-4-carbonitrile], the IC50 came out at 14.1 µM.
For `O=C(O)C1Nc2c(O)cccc2C2C=CCC12` (stereo not given), the IC50 came to 11 µM.
As to `O=C(OC1CCCCC1)c1ccc2c(c1)C1C=CCC1C(C(=O)O)N2` (stereo not given) [SMR000019385], the IC50 is 3.8 µM.
Turning to `Cc1ccc2c(c1C)NC(C(=O)O)C1CC=CC21` (stereo not given), the concentration for half-maximal inhibition (IC50) turned out to be 7.12 µM.
Consider `COc1ccc(Br)cc1C=c1sc2nc(-c3ccco3)nn2c1=O` [5-[(5-bromanyl-2-methoxy-phenyl)methylidene]-2-(furan-2-yl)-[1,3]thiazolo[3,2-b][1,2,4]triazol-6-one], for which the IC50 was determined as 4.2 µM.
As to `Cc1c(N=c2c(=O)c3ccccc3c2=O)c(=O)n(-c2ccccc2)n1C` [MLS000105950], the IC50 is greater than 50 µM.
For `[O-]/[N+](=C\c1ccncc1)c1ccccc1`, the IC50 was greater than 50 µM.
Turning to `CCOc1ccc2noc3c2c1C(=O)c1ccccc1-3` [MLS000106837], the IC50 was greater than 50 µM.
Turning to `Oc1nc(Nc2ccccc2)cc2ccccc12` [MLS000043701], the IC50 turned out to be 45.8 µM.
The value for `CCOC(=O)C(C(=O)OCC)c1cc(Br)c2noc3c2c1C(=O)c1ccccc1-3` [MLS000038842] was greater than 50 µM.
Turning to `O=C1Cc2ccccc2C(=O)N1CCc1ccccc1` [2-(2-phenylethyl)-4H-isoquinoline-1,3-dione], the half-maximal inhibitory concentration (IC50) stood at 48.9 µM.
With `CCn1nc(-c2ccccc2)nc2c(=O)n(C)c(=O)nc1-2` [1-Ethyl-6-methyl-3-phenyl-1H-pyrimido[5,4-e][1,2,4]triazine-5,7-dione], the IC50 stood at 20 µM.
With `Cn1ncnc2c(=O)n(C)c(=O)nc1-2`, the IC50 turned out to be 23 µM.
Take `O=C(Nc1ccc2nc(-c3ccco3)c(-c3ccco3)nc2c1)N1CCCCCC1`: the IC50 amounted to 22.4 µM.
On to `Cc1ccc2c(c1)C1C=CCC1C(C(=O)O)N2` (stereo not given) [MLS-0067149.0001], for which the IC50 was determined as 7.35 µM.
On to `Nc1cccc2cnccc12` [isoquinolin-5-amine], for which the IC50 is greater than 50 µM.
With `O=C(NC1(O)C(=O)c2ccccc2C1=O)c1ccccc1` [N-(2-hydroxy-1,3-dioxo-2-indenyl)benzamide], the half-inhibitory concentration (IC50) is greater than 50 µM.
Next, `COc1ccc2noc3c2c1C(=O)c1ccccc1-3` [MLS000106874]: greater than 50 µM; `[O-]/[N+](=C\c1ccc(OC(F)F)cc1)c1ccccc1` [1-[4-(difluoromethoxy)phenyl]-N-phenylmethanimine oxide]: greater than 50 µM; `CCn1nc(-c2cccs2)nc2c(=O)n(C)c(=O)nc1-2` [1-ethyl-6-methyl-3-thiophen-2-yl-pyrimido[5,4-e][1,2,4]triazine-5,7-dione]: greater than 50 µM.
Turning to `N#Cc1c(N2CCCC2)nc(N)c2c(N)nc(N3CCCC3)cc12` [SMR000061605], the concentration for half-maximal inhibition (IC50) is greater than 50 µM.
In the case of `Cc1ccccc1Nc1cc2ccccc2c(O)n1` [3-[(2-methylphenyl)amino]-2H-isoquinolin-1-one], the IC50 was 45 µM.
As for `COc1cccc2c1NC(C(=O)O)C1CC=CC21` (stereo not given) [SMR000009698], the IC50 stood at 6.18 µM.
Next, `O=C1C=Cc2ccccc2C1=O` [1,2-dihydronaphthalene-1,2-dione]: 25.4 µM.
